Test system: SARS-CoV-2
Assay: microbe, parasite or virus in culture
Conditions: Severe acute respiratory syndrome coronavirus 2, Vero C1008, 48 h

Compound	IC50	IC50 (read-out: pIC50 (converted))
O=c1c(-c2ccc(O)cc2)coc2cc(O)ccc12 [DAIDZEIN]	> 20 µM	> 20 µM
CCC(CC)CC1(C(=O)Nc2ccccc2SC(=O)C(C)C)CCCCC1 [DALCETRAPIB]	> 20 µM	> 20 µM
CCNC(=O)NCCCOc1cccc(CN2CCCCC2)c1 [DALCOTIDINE]	> 20 µM	> 20 µM
Nc1ccncc1 [DALFAMPRIDINE]	> 20 µM	> 20 µM
C#C[C@]1(O)CC[C@H]2[C@@H]3CCC4=Cc5oncc5C[C@]4(C)[C@H]3CC[C@@]21C [DANAZOL]	> 20 µM	> 20 µM
O=C1c2cccc(O)c2C(=O)c2c(O)cccc21 [DANTHRON]	> 20 µM	> 20 µM
O=C1CN(/N=C/c2ccc(-c3ccc([N+](=O)[O-])cc3)o2)C(=O)N1 [DANTROLENE]	> 20 µM	> 20 µM
CO[C@@H](C(=O)N1Cc2[nH]nc(NC(=O)c3ccc(N4CCN(C)CC4)cc3)c2C1)c1ccccc1 [DANUSERTIB]	> 20 µM	> 20 µM
CCOc1ccc(Cc2cc([C@@H]3O[C@H](CO)[C@@H](O)[C@H](O)[C@H]3O)ccc2Cl)cc1 [DAPAGLIFLOZIN]	> 20 µM	> 20 µM
Cc1cc(C)c(Nc2ccnc(Nc3ccc(C#N)cc3)n2)c(C)c1 [DAPIVIRINE]	> 20 µM	> 20 µM
O=C(/C=C/c1cccnc1)NCCCCC1CCN(C(=O)c2ccccc2)CC1 [DAPORINAD]	> 20 µM	> 20 µM
CN(C)[C@@H](CCOc1cccc2ccccc12)c1ccccc1 [DAPOXETINE]	> 20 µM	> 20 µM
O=C(O)CNC(=O)C1C(=O)N(C2CCCCC2)C(=O)N(C2CCCCC2)C1=O [DAPRODUSTAT]	> 20 µM	> 20 µM
Nc1ccc(S(=O)(=O)c2ccc(N)cc2)cc1 [DAPSONE]	> 20 µM	> 20 µM
CCOC(=O)C1=C(C)NC(C)=C(C(=O)OCC)C1c1cccc2nonc12 [DARODIPINE]	> 20 µM	> 20 µM
CC(O)c1cc(C(=O)N[C@@H](C)Cn2ccc(-c3ccc(C#N)c(Cl)c3)n2)n[nH]1 (stereo not given in full) [DAROLUTAMIDE]	> 20 µM	> 20 µM
CC1(N)CCN(c2cccnc2NC(=O)c2nc(-c3ncccc3C(F)(F)F)cnc2N)CC1 [DAROVASERTIB]	> 20 µM	> 20 µM
Cc1nc(Nc2ncc(C(=O)Nc3c(C)cccc3Cl)s2)cc(N2CCN(CCO)CC2)n1 [DASATINIB]	> 20 µM	> 20 µM
N[C@@H]1CC[C@@H](c2ccc(Cl)c(Cl)c2)c2ccccc21 [DASOTRALINE]	> 20 µM	> 20 µM
COc1cccc2c1C(=O)c1c(O)c3c(c(O)c1C2=O)C[C@@](O)(C(C)=O)C[C@@H]3O[C@H]1C[C@H](N)[C@H](O)[C@H](C)O1 [DAUNORUBICIN]	> 20 µM	> 20 µM
COc1cc(CC(=O)NCCCc2ccc(C)c(C)c2)ccc1OCCN [DAVASAICIN]	> 20 µM	> 20 µM
OC(C1=NCCN1)(c1ccc(Cl)cc1)c1ccccn1 (stereo not given) [DAZADROL]	> 20 µM	> 20 µM
Cc1c(Cn2ccnc2)c2ccccc2n1CCC(=O)O [DAZMEGREL]	> 20 µM	> 20 µM
CCN1CC(NC(=O)c2cc(Cl)c(N)cc2OC)CN1CC [DAZOPRIDE]	> 20 µM	> 20 µM

Compound	IC50	IC50 (read-out: pIC50 (converted))
O=C(O)c1ccc(OCCn2ccnc2)cc1 [DAZOXIBEN]	> 20 µM	> 20 µM
CC(N)C(=O)c1ccccc1 (stereo not given) [DEALKYLATED DIETHYLPROPION]	> 20 µM	> 20 µM
N=C(N)N1CCc2ccccc2C1 [DEBRISOQUIN]	> 20 µM	> 20 µM
C[N+](C)(C)CCCCCCCCCC[N+](C)(C)C [DECAMETHONIUM]	> 20 µM	> 20 µM
CC[C@@](C)(Nc1ccnc(-c2c[nH]c3ncccc23)n1)C(=O)NCC(F)(F)F [DECERNOTINIB]	> 20 µM	> 20 µM
Nc1ncn([C@H]2C[C@H](O)[C@@H](CO)O2)c(=O)n1 [DECITABINE]	> 20 µM	> 20 µM
CCN(CC)CCNC(=O)c1ccc(N)c(Cl)c1 [DECLOPRAMIDE]	> 20 µM	> 20 µM
Nc1ccc(C#Cc2cnn3c(C(F)(F)F)cc(-c4ccc(C(F)(F)F)cc4)nc23)cn1 [DECOGLURANT]	> 20 µM	> 20 µM
CNC(=O)c1ccc(Nc2ncc(C(F)(F)F)c(NCc3nccnc3N(C)S(C)(=O)=O)n2)cc1 [DEFACTINIB]	> 20 µM	> 20 µM
Cc1c(O)c(=O)ccn1C [DEFERIPRONE]	> 20 µM	> 20 µM
CC(=O)N(O)CCCCCNC(=O)CCC(=O)N(O)CCCCCNC(=O)CCC(=O)N(O)CCCCCN [DEFEROXAMINE]	> 20 µM	> 20 µM
CC(=O)OCC(=O)[C@@]12N=C(C)O[C@@H]1C[C@H]1[C@@H]3CCC4=CC(=O)C=C[C@]4(C)[C@H]3[C@@H](O)C[C@@]12C [DEFLAZACORT]	> 20 µM	> 20 µM
COc1cc2c(cc1OC)[C@@H]1C(=O)c3ccc4c(c3O[C@@H]1CO2)C=CC(C)(C)O4 [DEGUELIN]	> 20 µM	> 20 µM
CC(=O)C1C(=O)C=C(C)OC1=O (stereo not given) [DEHYDROACETIC ACID]	> 20 µM	> 20 µM
CC(=O)O[C@H]1CC[C@@]2(C)C(=CC[C@@H]3[C@@H]2CC[C@]2(C)C(=O)CC[C@@H]32)C1 [DEHYDROEPIANDROSTERONE ACETATE]	> 20 µM	> 20 µM
CC(C)Nc1cccnc1N1CCN(C(=O)c2cc3cc(NS(C)(=O)=O)ccc3[nH]2)CC1 [DELAVIRDINE]	> 20 µM	> 20 µM
O=C1CN=C(c2ccccc2Cl)c2cc(Cl)ccc2N1 [DELORAZEPAM]	> 20 µM	> 20 µM
CN(C)[C@@H]1C(O)=C(C(N)=O)C(=O)[C@@]2(O)C(O)=C3C(=O)c4c(O)ccc(Cl)c4[C@@H](O)[C@H]3C[C@@H]12 [DEMECLOCYCLINE]	> 20 µM	> 20 µM
CC[N+](CC)(CC(=O)Nc1c(C)cccc1C)Cc1ccccc1 [DENATONIUM]	> 20 µM	> 20 µM
OC(Cn1ccnc1)c1ccc(CCc2ccccc2)cc1 (stereo not given) [DENZIMOL]	> 20 µM	> 20 µM
CNCCc1ccc(O)c(O)c1 [DEOXIEPINEPHRINE]	> 20 µM	> 20 µM
OC[C@H]1NC[C@@H](O)[C@@H](O)[C@@H]1O [DEOXYMANNOJIRIMYCIN]	> 20 µM	> 20 µM
CC(=O)[C@@]1(O)CC[C@H]2[C@@H]3CCC4=CC(=O)C=C[C@]4(C)[C@H]3[C@@H](O)C[C@@]21C [DEPRODONE]	> 20 µM	> 20 µM
CNCCCN1c2ccccc2CCc2ccccc21 [DESIPRAMINE]	> 20 µM	> 20 µM

Compound	IC50	IC50 (read-out: pIC50 (converted))
C[C@@H]1C[C@H]2[C@@H]3CCC4=CC(=O)C=C[C@]4(C)[C@@]3(F)[C@@H](O)C[C@]2(C)[C@H]1C(=O)CO [DESOXIMETASONE]	> 20 µM	> 20 µM
CC(=O)OCC(=O)[C@H]1CC[C@H]2[C@@H]3CCC4=CC(=O)CC[C@]4(C)[C@H]3CC[C@]12C [DESOXYCORTICOSTERONE ACETATE]	> 20 µM	> 20 µM
CC(C)(C)C(=O)OCC(=O)[C@H]1CC[C@H]2[C@@H]3CCC4=CC(=O)CC[C@]4(C)[C@H]3CC[C@]12C [DESOXYCORTICOSTERONE PIVALATE]	> 20 µM	> 20 µM
C[C@]12CC[C@H]3[C@@H](CCC4=CC(=O)CC[C@@]43C)[C@@H]1CC[C@@H]2C(=O)CO [DESOXYCORTICOSTERONE]	> 20 µM	> 20 µM
CN(C)CC(c1ccc(O)cc1)C1(O)CCCCC1 (stereo not given) [DESVENLAFAXINE]	> 20 µM	> 20 µM
Cc1cccc(Cc2c[nH]cn2)c1C [DETOMIDINE]	> 20 µM	> 20 µM
CN1C(=O)[C@@H](NC(=O)c2cc3ccccc3[nH]2)N=C(c2ccccc2)c2ccccc21 [DEVAZEPIDE]	> 20 µM	> 20 µM
C[C@@H]1C[C@H]2[C@@H]3CCC4=CC(=O)C=C[C@]4(C)[C@@]3(F)[C@@H](O)C[C@]2(C)[C@@]1(O)C(=O)CO [DEXAMETHASONE]	> 20 µM	> 20 µM
c1ccc([C@@H]2CN3CCSC3=N2)cc1 [DEXAMISOLE]	> 20 µM	> 20 µM
CN(C)CC[C@@H](c1ccc(Cl)cc1)c1ccccn1 [DEXCHLORPHENIRAMINE]	> 20 µM	> 20 µM
O=C1CC[C@@](c2ccccc2)(C2CCN(Cc3ccccc3)CC2)C(=O)N1 [DEXETIMIDE]	> 20 µM	> 20 µM
COC(=O)C1=C(C)NC(C)=C(C(=O)OCCCN2CCC(c3ccccc3)(c3ccccc3)CC2)[C@@H]1c1cccc([N+](=O)[O-])c1 [DEXNIGULDIPINE]	> 20 µM	> 20 µM
CC(C)(CO)[C@@H](O)C(=O)NCCCO [DEXPANTHENOL]	> 20 µM	> 20 µM
C[C@@H](CN1CC(=O)NC(=O)C1)N1CC(=O)NC(=O)C1 [DEXRAZOXANE]	> 20 µM	> 20 µM
CCN(CCCC(=O)C1CCCCC1)[C@@H](C)Cc1ccc(OC)cc1 [DEXSECOVERINE]	> 20 µM	> 20 µM
CCOC(=O)[C@]1(c2ccccc2)CCC=C[C@H]1N(C)C [DEXTILIDINE]	> 20 µM	> 20 µM
CC[C@H]1C(C)=NN=C(c2ccc(OC)c(OC)c2)c2cc(OC)c(OC)cc21 [DEXTOFISOPAM]	> 20 µM	> 20 µM
C[N+](C)(C)C[C@H](O)CC(=O)O [DEXTROCARNITINE]	> 20 µM	> 20 µM
COc1ccc2c(c1)[C@]13CCCC[C@@H]1[C@H](C2)N(C)CC3 [DEXTROMETHORPHAN]	> 20 µM	> 20 µM
OC[C@H]1OC(O)[C@H](O)[C@@H](O)[C@@H]1O (stereo not given in full) [DEXTROSE]	> 20 µM	> 20 µM
Nc1cc2[nH]cnc2c(=O)[nH]1 [DEZAGUANINE]	> 20 µM	> 20 µM
C[C@@]12CCCCC[C@@H](Cc3ccc(O)cc31)[C@@H]2N [DEZOCINE]	> 20 µM	> 20 µM

Source: ChEMBL document CHEMBL4651402, “Screening of ~5500 FDA-approved drugs and clinical candidates for anti-SARS-CoV-2 activity” (2021)
